Patent US20110135754A1, “CONTROL OF DISEASES IN CROPS” (priority 2008, published 2011)

Tests used:
[1] = at 20 c; in water; cited from earlier work
[2] = tested on: rust; experiment: Field spray of vanadyl citrate solution on an oats crop to control rust; assay type: in vivo; conditions: oats crop for stock feed, about 2 hectares, sprayed at approx. 150 mm height, approx. 7.5 grams of elemental vanadium per hectare; adjacent untreated crop failed to give any yield due to rust
Description: A solution containing vanadium in the form of vanadyl citrate was prepared. The solution was sprayed onto about 2 hectares of an oats crop for stock feed, that was in early stages of growth where the crop was approximately 150 mm in height. The spray was applied in a manner such that approximately 7.5 grams of elemental vanadium per hectare, was applied to the crop.

[O]=[V](=[O])[O][V](=[O])=[O] [Vanadium Pentoxide, vanadium pentoxide]
solubility [1]: 0.8 g/100 ml

O=C([O-])CC(O)(CC(=O)[O-])C(=O)[O-].[O]=[V+2] [vanadyl citrate]
crop yield (cuttings delivered) of treated crop [2]: delivered three cuttings
